In patent US20100298141A1, “SUBSTITUTED PYRIDINE N-OXIDE HERBICIDES” (E. I. DU PONT DE NEMOURS AND COMPANY, priority 2007, published 2010):

Legend:
cocklebur = experiment: Test C pre-/postemergence test; assay type: in vivo, Xanthium strumarium; settings: Postemergence; for Plant response rating, Cocklebur: scale 0 to 100, 0 no effect, 100 complete control
Outline: (§1)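 Compounds in a non-phytotoxic solvent with surfactant applied preemergence to seeded pots and, at the same time, postemergence to plants 2–18 cm tall (1- to 4-leaf stage). Paddy tests: pots flooded to 3 cm, compound applied into the water, depth held throughout.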

wild oat = experiment: Test C pre-/postemergence test; assay type: in vivo, Avena fatua; settings: Postemergence; for Plant response rating, Oat, Wild: scale 0 to 100, 0 no effect, 100 complete control
Outline: as §1

soybean = experiment: Test C pre-/postemergence test; assay type: in vivo, Glycine max; settings: Postemergence; for Plant response rating, Soybean: scale 0 to 100, 0 no effect, 100 complete control
Outline: as §1

duck salad = experiment: Test C flooded paddy test; assay type: in vivo, Heteranthera limosa; settings: Flood
Outline: (§2)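 Pots were flooded to 3 cm above the soil surface at treatment, compound applied directly to the paddy water, and that depth held throughout. Plants were kept in a greenhouse for 13 to 15 days, then visually rated against untreated controls.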

downy brome = experiment: Test C pre-/postemergence test; assay type: in vivo, Bromus tectorum; settings: Postemergence; for Plant response rating, Bromegrass, Downy: scale 0 to 100, 0 no effect, 100 complete control
Outline: as §1

green foxtail = experiment: Test C pre-/postemergence test; assay type: in vivo, Setaria viridis; settings: Postemergence; for Plant response rating, Foxtail, Green: scale 0 to 100, 0 no effect, 100 complete control
Outline: as §1

woolly cupgrass = experiment: Test C pre-/postemergence test; assay type: in vivo, Eriochloa villosa; settings: Postemergence; for Plant response rating, Cupgrass, Woolly: scale 0 to 100, 0 no effect, 100 complete control
Outline: as §1

Italian ryegrass = experiment: Test C pre-/postemergence test; assay type: in vivo, Lolium multiflorum; settings: Postemergence; for Plant response rating, Ryegrass, Italian: scale 0 to 100, 0 no effect, 100 complete control
Outline: as §1

velvetleaf [1] = experiment: Test A pre-/postemergence greenhouse test; assay type: in vivo, Abutilon theophrasti; settings: for Plant response rating, Velvetleaf: 0 to 100 scale where 0 is no effect and 100 is complete control; for Velvetleaf plant response rating: 0 to 100 scale
Outline: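 Visual injury ratings against untreated controls, taken roughly ten days after treatment in greenhouse. Plants were sprayed postemergence at one- to two-leaf stage (2–10 cm tall); at the same time, seeded loam/sand soil received a directed preemergence spray. Formulation: non-phytotoxic solvent mixture with surfactant.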

morningglory = experiment: Test C pre-/postemergence test; assay type: in vivo, Ipomoea coccinea; settings: Postemergence; for Plant response rating, Morningglory: scale 0 to 100, 0 no effect, 100 complete control
Outline: as §1

johnsongrass = experiment: Test C pre-/postemergence test; assay type: in vivo, Sorghum halepense; settings: Postemergence; for Plant response rating, Johnsongrass: scale 0 to 100, 0 no effect, 100 complete control
Outline: as §1

velvetleaf [2] = experiment: Test C pre-/postemergence test; assay type: in vivo, Abutilon theophrasti; settings: Postemergence; for Plant response rating, Velvetleaf: scale 0 to 100, 0 no effect, 100 complete control
Outline: as §1

giant foxtail = experiment: Test C pre-/postemergence test; assay type: in vivo, Setaria faberii; settings: Postemergence; for Plant response rating, Foxtail, Giant: scale 0 to 100, 0 no effect, 100 complete control
Outline: as §1

barnyardgrass = experiment: Test C flooded paddy test; assay type: in vivo, Echinochloa crus-galli; settings: Flood
Outline: as §2

blackgrass = experiment: Test C pre-/postemergence test; assay type: in vivo, Alopecurus myosuroides; settings: Postemergence; for Plant response rating, Blackgrass: scale 0 to 100, 0 no effect, 100 complete control
Outline: as §1

corn = experiment: Test C pre-/postemergence test; assay type: in vivo, Zea mays; settings: Postemergence; for Plant response rating, Corn: scale 0 to 100, 0 no effect, 100 complete control
Outline: as §1

[3] = 62 g ai/ha, scale 0 to 100 (0 no effect, 100 complete control)
[4] = 250 g ai/ha, scale 0 to 100, 0 no effect, 100 complete control, 13 to 15 days

## CCn1nc(C(F)(F)F)c(C(C)S(=O)(=O)c2cccc[n+]2[O-])c1OCC(F)(F)F (stereo not drawn) [Compound 69]
cocklebur; 31 g ai/ha
  Plant response rating (0 to 100), Cocklebur: 0
cocklebur; 62 g ai/ha
  Plant response rating, Cocklebur: 0
cocklebur; 125 g ai/ha
  Plant response rating, Cocklebur: 0
cocklebur; 250 g ai/ha
  Plant response rating, Cocklebur: 0
Wild oat; 31 g ai/ha
  Plant response rating (0 to 100), Oat, Wild: 0
Wild oat; 62 g ai/ha
  Plant response rating, Oat, Wild: 0
Wild oat; 125 g ai/ha
  Plant response rating, Oat, Wild: 0
Wild oat; 250 g ai/ha
  Plant response rating, Oat, Wild: 90
soybean; 31 g ai/ha
  Plant response rating (0 to 100), Soybean: 0
soybean; 62 g ai/ha
  Plant response rating (0 to 100), Soybean: 30
soybean; 125 g ai/ha
  Plant response rating, Soybean: 30
soybean; 250 g ai/ha
  Plant response rating, Soybean: 35
Duck salad; [3]
  Plant response rating, Ducksalad: 70
Duck salad; [4]
  Plant response rating, Ducksalad: 100
Downy brome; 31 g ai/ha
  Plant response rating (0 to 100), Bromegrass, Downy: 0
Downy brome; 62 g ai/ha
  Plant response rating, Bromegrass, Downy: 0
Downy brome; 125 g ai/ha
  Plant response rating, Bromegrass, Downy: 10
Downy brome; 250 g ai/ha
  Plant response rating, Bromegrass, Downy: 45
Green foxtail; 31 g ai/ha
  Plant response rating (0 to 100), Foxtail, Green: 0
Green foxtail; 62 g ai/ha
  Plant response rating, Foxtail, Green: 0
Green foxtail; 125 g ai/ha
  Plant response rating, Foxtail, Green: 30
Green foxtail; 250 g ai/ha
  Plant response rating, Foxtail, Green: 90
Woolly cupgrass; 31 g ai/ha
  Plant response rating (0 to 100), Cupgrass, Woolly: 0
Woolly cupgrass; 62 g ai/ha
  Plant response rating, Cupgrass, Woolly: 0
Woolly cupgrass; 125 g ai/ha
  Plant response rating, Cupgrass, Woolly: 0
Woolly cupgrass; 250 g ai/ha
  Plant response rating, Cupgrass, Woolly: 0
Italian ryegrass; 31 g ai/ha
  Plant response rating (0 to 100), Ryegrass, Italian: 0
Italian ryegrass; 62 g ai/ha
  Plant response rating (0 to 100), Ryegrass, Italian: 40
Italian ryegrass; 125 g ai/ha
  Plant response rating, Ryegrass, Italian: 50
Italian ryegrass; 250 g ai/ha
  Plant response rating, Ryegrass, Italian: 95
Velvetleaf [1]; Postemergence, 125 g ai/ha
  Plant response rating, Velvetleaf: 50
Velvetleaf [1]; Postemergence, 500 g ai/ha, 0 is no effect, 100 is complete control
  Velvetleaf plant response rating: 80
Velvetleaf [1]; Preemergence, 125 g ai/ha, 0 no effect, 100 complete control
  Velvetleaf plant response rating: 10
Velvetleaf [1]; Preemergence, 500 g ai/ha
  Plant response rating, Velvetleaf: 100
morningglory; 31 g ai/ha
  Plant response rating (0 to 100), Morningglory: 0
morningglory; 62 g ai/ha
  Plant response rating, Morningglory: 0
morningglory; 125 g ai/ha
  Plant response rating, Morningglory: 0
morningglory; 250 g ai/ha
  Plant response rating, Morningglory: 0
johnsongrass; 31 g ai/ha
  Plant response rating (0 to 100), Johnsongrass: 0
johnsongrass; 62 g ai/ha
  Plant response rating, Johnsongrass: 0
johnsongrass; 125 g ai/ha
  Plant response rating, Johnsongrass: 20
johnsongrass; 250 g ai/ha
  Plant response rating, Johnsongrass: 40
Velvetleaf [2]; 31 g ai/ha
  Plant response rating (0 to 100), Velvetleaf: 0
Velvetleaf [2]; 62 g ai/ha
  Plant response rating (0 to 100), Velvetleaf: 0
Velvetleaf [2]; 125 g ai/ha
  Plant response rating, Velvetleaf: 0
Velvetleaf [2]; 250 g ai/ha
  Plant response rating, Velvetleaf: 0
Giant foxtail; 31 g ai/ha
  Plant response rating (0 to 100), Foxtail, Giant: 0
Giant foxtail; 62 g ai/ha
  Plant response rating, Foxtail, Giant: 0
Giant foxtail; 125 g ai/ha
  Plant response rating, Foxtail, Giant: 0
Giant foxtail; 250 g ai/ha
  Plant response rating, Foxtail, Giant: 60
barnyardgrass; [3]
  Plant response rating, Barnyardgrass: 0
barnyardgrass; [4]
  Plant response rating, Barnyardgrass: 75
blackgrass; 31 g ai/ha
  Plant response rating (0 to 100), Blackgrass: 0
blackgrass; 62 g ai/ha
  Plant response rating, Blackgrass: 0
blackgrass; 125 g ai/ha
  Plant response rating, Blackgrass: 85
blackgrass; 250 g ai/ha
  Plant response rating, Blackgrass: 95
corn; 31 g ai/ha
  Plant response rating (0 to 100), Corn: 0
corn; 62 g ai/ha
  Plant response rating, Corn: 0
corn; 125 g ai/ha
  Plant response rating, Corn: 0
corn; 250 g ai/ha
  Plant response rating, Corn: 0
